Measured values reported in patent US20050124618A1, “Methods of modulating angiogenesis and cancer cell proliferation” (priority 2003, published 2005).
Read-outs that look alike come from different tables or passages of the source.

Experiments:
VEGF = assay: Western blot of VEGF protein expression in TA muscle; format: in vivo, rat
Protocol: Western blot analysis to detect the presence of VEGF protein: The 100-mg TA muscle specimens were homogenized, and the protein was suspended in potassium buffer (10 mM). Five micrograms of protein (as determined by a protein assay kit, Bio-Rad; Hercules, Calif.) from the TA and a tumor cell line known to express VEGF at high levels (C6, American Type Culture Collection, 107-CCL) were separated on a 12% denaturing polyacrylamide gel. The gels were transferred to a nitrocellulose membrane, which was blocked overnight in 5% nonfat dry milk diluted in Tris-buffered saline (50 mM Tris and 750 mM NaCl, pH 8) with 0.08% Tween 20 (Bio-Rad). The blots were then incubated with a […] antibody to a peptide derived from the human VEGF sequence (1:1,000 dilution, clone G143-850, Pharmingen) for 2 h at room temperature. Washed blots were then incubated with goat anti-mouse secondary antibody at a dilution of 1:1,000 for 1 h at room temperature and then subjected to a SuperSignal West Dura chemiluminescence substrate (Pierce; Rockford, Ill.) detection system. Membranes were exposed to X-ray film (Fuji Medical; Stamford, Conn.) for 15 to 30 s and developed using a Kodak M35 X-Omat processor. For the quantitative VEGF analysis, film was always exposed for a period of time that ensured that all signals were within the linear range of the detection of the film. The VEGF band intensity was quantified using a morphometry imaging system (Metamorph, Universal Imaging; West Chester, Pa.), and values are expressed as a percentage of the C6 tumor cell standard.

[1] = test system: extensor digitorum longus (EDL) and tibialis anterior (TA) muscles; assay: Vessel density of EDL and TA muscles after 7 days of electrical stimulation; format: in vivo, rat
Protocol: Experimental protocols and tissue preparation: After a 24-h recovery period, the implanted stimulator was activated by momentary closure of the magnetic reed switch using a small hand-held magnet. […] Contractions of the extensor digitorum longus (EDL) and tibialis anterior (TA) muscles were automatically initiated at 9 AM each day and sustained for 8 h/day over a consecutive 7-day period. At the end of the stimulation period, the animals were euthanized by an overdose of pentobarbital sodium (100 mg/kg ip), and the EDL and TA muscles were harvested for analysis as previously described (Greene A S et al., Hypertension 15: 779-783, 1990; and Parmentier J H et al., Hypertension 37: 623-629, 2001).
Tissue harvest and morphological analysis of vessel density: The stimulated and contralateral muscles were removed, weighed, and rinsed in physiological salt solution. A 300-mg sample was taken from the rostral portion of the TA muscle and frozen in liquid nitrogen for Western blot (100 mg) and HPLC (200 mg) analysis for measurement of VEGF protein expression and 20-HETE formation, respectively. The remaining TA and EDL muscles were lightly fixed in a 0.25% formalin solution overnight. The muscles were sectioned via a manual microtome to a thickness of about 100 μm by securing the tendons and slicing parallel to the longitudinal orientation of the muscle fibers. From every animal, two slices of each EDL muscle and three slices of each TA muscle were made. The slices were than immersed for 2 h in a solution of 25 μg/ml rhodamine-labeled Griffonia simplicifolia I (GS-I) lectin (Sigma; St. Louis, Mo. (Greene A S et al., Hypertension 15: 779-783, 1990)). Immediately after this 2-h exposure to GS-I lectin, the muscles were rinsed in physiological solution. The rinsing procedure was repeated after 15 and 30 min, and the muscles were rinsed in physiological saline solution for 12 h (overnight, at 4° C.). On the next day, the slices were mounted on microscope slides with a water-soluble mounting medium consisting of toluene and acrylic resin (SP ACCU-MOUNT 280, Baxter Scientific).
The labeled sections were visualized using a video fluorescent microscope system (Olympus ULWD CD Plan, ×20 objective, 1.6 cm working distance and 0.4 numerical aperture) with epi-illumination, as previously described (Parmentier J H et al., Hypertension 37: 623-629, 2001). In the present study, 10-15 and 20-25 representative fields were selected for study from each EDL and TA muscle slice, respectively. Each field was converted to a digitized image (DT2801 Data Translation; Marlboro, Mass.) and stored as an 8-bit/pixel image file with a resolution of 512×512 pixels. Morphometric analysis of the scanned histochemical sections was done as previously described (Parmentier J H et al., Hypertension 37: 623-629, 2001).
Data analysis and statistics: For each muscle, the vessel counts of all the selected fields (10-15 scans×2 slices for each EDL muscle; 20-25 scans×3 slices for each TA muscle) were averaged to a single vessel density. Vessel density was expressed in terms of the mean number of vessel-grid intersections per microscope field (0.224 mm^2). For each experimental group, the measured vessel density and 20-HETE formation of the stimulated muscle was compared with its unstimulated counterpart as well as with age-matched controls. All values are presented as means±SE. The significance of differences in values measured in the same animal was evaluated using a two-factor ANOVA (drug×stimulation) with repeated measures on one factor (stimulation). Significant differences were further investigated using a post hoc test (Tukey's).

U251 human glioma cells = assay: [3H]thymidine incorporation in U251 cells; format: cell-based; conditions: for inhibition at 10 µM: Homo sapiens
Protocol: [^3H]Thymidine Incorporation Studies: Thymidine incorporation studies were performed with cells grown in 35-mm culture dishes. […] Palmitic acid and EtOH served as fatty acid and vehicle controls, respectively. At the end of the pulse, the medium was aspirated and the cells rinsed twice with cold 1× phosphate buffered saline (PBS). The rinsed cultures were fixed by exposure to cold 5% trichloracetic acid overnight at 4° C., after which fixed cells were extracted as described previously (Scholler et al., Mol. Pharmacol. 45: 944-954, 1994). A second set of non-fixed dishes was treated with 0.05% trypsin/EDTA to estimate cell numbers. [^3H]thymidine was detected by scintillation counting and expressed as dpm/10^3 cells.

[2] = chronic treatment, 7 days electrical stimulation

SMILES: CCCCc1ccc(N=CNO)c(C)c1 [HET0016, N-hydroxy-N′-(4-butyl-2 methylphenyl) formamidine]
- effect on increases in VEGF protein expression induced by electrical stimulation (VEGF; 7 days stimulation): did not block
- effect on baseline VEGF expression (VEGF; 7 days treatment): Neither HET0016 nor ABT had any effect
- effect on the increase in vessel density (angiogenesis) induced by electrical stimulation ([1]; 7 days, HET0016 2 mg kg−1 day−1, ABT 50 mg kg−1 day−1): completely blocked
- vessel density, EDL, unstimulated side ([1]; chronic treatment, 7 days): 116.0±1.0 number of vessel intersections
- vessel density, TA, unstimulated side ([1]; chronic treatment, 7 days): 105.7±4.9 number of vessel intersections
- vessel density, EDL, stimulated side [1, 2]: 118.0±10.1 number of vessel intersections
- vessel density, TA, stimulated side [1, 2]: 110.5±1.1 number of vessel intersections
- inhibition of DNA synthesis ([3H]thymidine incorporation/uptake) (U251 human glioma cells; 10 μM HET0016, approximately 48 hr): 66%
- inhibition at 10 µM (U251 human glioma cells; U-251, 10 μM HET0016, approximately 24 hr, read-out: inhibition of DNA synthesis ([3H]thymidine incorporation)): 50%
- inhibition at 10 µM (U251 human glioma cells; U-251, 10 μM HET0016, approximately 48 hr, read-out: inhibition of DNA synthesis ([3H]thymidine incorporation/uptake)): 65%
